From patent EP4729516A1, “S[…] DERIVATIVE, INTERMEDIATE, PREPARATION METHOD THEREFOR AND USE THEREOF” (Jiangsu NHWA Pharmaceutical Co., Ltd, priority 2023, dated 2024)
Where a name gives a salt, the structure may show the parent alone. Read-outs that look alike come from different tables or passages of the source.

Tests used:
α2B receptor = target: T1, α2B receptor (Homo sapiens, UniProt P18089); assay: Competitive receptor binding assay, α2B (3H-RX821002, CHO-K1-α2B membranes)
T1 construct: expressed in transfected cells; host or cells: CHO-K1
T1 sequence (P18089 1-450): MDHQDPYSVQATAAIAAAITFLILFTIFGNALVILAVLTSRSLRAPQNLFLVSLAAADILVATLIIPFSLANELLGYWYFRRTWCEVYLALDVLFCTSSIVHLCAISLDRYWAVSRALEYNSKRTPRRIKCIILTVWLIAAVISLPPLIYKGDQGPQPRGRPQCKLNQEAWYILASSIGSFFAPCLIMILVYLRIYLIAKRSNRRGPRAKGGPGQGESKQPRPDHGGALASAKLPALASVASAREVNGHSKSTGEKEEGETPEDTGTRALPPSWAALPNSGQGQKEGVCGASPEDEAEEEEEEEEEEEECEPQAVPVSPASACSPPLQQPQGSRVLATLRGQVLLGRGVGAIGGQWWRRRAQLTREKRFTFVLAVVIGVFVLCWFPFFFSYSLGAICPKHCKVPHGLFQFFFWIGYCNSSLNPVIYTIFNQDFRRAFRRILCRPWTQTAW
Description: (§1) Test sample (compound): The theoretical sample weighing amount was calculated according to the designed concentration and the required volume. Generally, the test sample was dissolved in DMSO to an initial preparation dose of 5.0 × 10^-3 M, and the solution was sequentially diluted with DMSO to 5.0 × 10^-4 M-5.0 × 10^-9 M; the diluted DMSO solution was diluted with Buffer to a working concentration of 5.0 × 10^-5 M-5.0 × 10^-11 M; and the final concentration of DMSO in the working solution was 1% (the final concentration of DMSO in the reaction system was 0.2%). The test sample was prepared and then stored at 4 °C. After the test was completed, the test sample was discarded.
(§2) CHO-K1-α1A, CHO-K1-α2A, CHO-K1-α2B, and CHO-K1-α2C cells were taken out of a refrigerator at -80 °C, thawed naturally, and centrifuged at 2000 g at 4 °C for 10 min. The supernatant was discarded, and the pellet was collected. […] The supernatant was discarded, and the buffer was added again. […] The supernatant was discarded, and the pellet was collected and stored at -80 °C.
(§3) Table 1. Experimental conditions for radioactive binding
(§4) Step 1: 50 µL of a vehicle (1% DMSO) was added to a total binding tube (TB), 50 µL of a non-labeled substance (with a final concentration of 1.0 × 10^-5 M) was added to a non-specific binding tube (NB), and 50 µL of a test compound was added to each test compound tube (CB).
(§5) Step 2: 100 µL of a buffer was added to each reaction tube.
(§6) Step 3: The prepared membrane was suspended in a buffer to give a membrane suspension with a corresponding concentration for later use.
(§7) Step 4: 50 µL of the corresponding radioligand was added to each reaction tube.
(§8) Step 5: 50 µL of the membrane suspension was added to each reaction tube.
(§9) Step 6: Each reaction tube was incubated according to the incubation conditions. After the reaction was completed, the binding ligands were rapidly filtered under reduced pressure. The UniFilter GF/C plate was saturated with a 0.5% PEI solution 1 h in advance, fully washed with an ice-cold Tris-HCl buffer, filtered under vacuum, then placed into a thermostatic dryer, and dried for 30 min. The filter plate was taken out, and a MICROSCINT PS scintillation solution was added at 40 µL/well.
(§10) Step 7: The scintillation vial was put into a liquid scintillation counter for counting.
(§11) Based on the effect values of the compound samples at different concentration test points, the GraphPad Prism software was used to fit the action curves of the compound samples to the receptors, and the Ki values were calculated.

α1A receptor = target: T2, α1A receptor (Homo sapiens, UniProt P35348); assay: Competitive receptor binding assay, α1A (3H-Prazosin, CHO-K1-α1A membranes)
T2 construct: expressed in transfected cells; host or cells: CHO-K1
T2 sequence (P35348 1-466): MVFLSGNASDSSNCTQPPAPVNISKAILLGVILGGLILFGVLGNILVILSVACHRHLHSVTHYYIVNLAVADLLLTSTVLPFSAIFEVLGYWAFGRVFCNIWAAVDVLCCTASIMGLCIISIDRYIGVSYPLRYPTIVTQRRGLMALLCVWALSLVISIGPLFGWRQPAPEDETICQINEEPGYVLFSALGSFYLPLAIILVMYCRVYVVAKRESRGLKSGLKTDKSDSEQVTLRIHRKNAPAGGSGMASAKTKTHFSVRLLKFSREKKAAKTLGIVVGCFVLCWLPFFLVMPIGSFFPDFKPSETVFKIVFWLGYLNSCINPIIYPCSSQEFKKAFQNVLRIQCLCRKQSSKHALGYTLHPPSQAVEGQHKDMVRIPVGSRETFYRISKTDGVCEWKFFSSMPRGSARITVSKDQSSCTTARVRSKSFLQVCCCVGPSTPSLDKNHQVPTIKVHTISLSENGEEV
Description: as §1, §2, §3, §4, §5, §6, §7, §8, §9, §10, §11

α2C adrenoceptor = target: T3, α2C adrenoceptor (Homo sapiens, UniProt P18825); assay: Agonist screening mode IP-One assay, CHO-α2C/Gα15 cells; assay type: cell-based
T3 construct: host or cells: CHO
T3 sequence (P18825 1-462): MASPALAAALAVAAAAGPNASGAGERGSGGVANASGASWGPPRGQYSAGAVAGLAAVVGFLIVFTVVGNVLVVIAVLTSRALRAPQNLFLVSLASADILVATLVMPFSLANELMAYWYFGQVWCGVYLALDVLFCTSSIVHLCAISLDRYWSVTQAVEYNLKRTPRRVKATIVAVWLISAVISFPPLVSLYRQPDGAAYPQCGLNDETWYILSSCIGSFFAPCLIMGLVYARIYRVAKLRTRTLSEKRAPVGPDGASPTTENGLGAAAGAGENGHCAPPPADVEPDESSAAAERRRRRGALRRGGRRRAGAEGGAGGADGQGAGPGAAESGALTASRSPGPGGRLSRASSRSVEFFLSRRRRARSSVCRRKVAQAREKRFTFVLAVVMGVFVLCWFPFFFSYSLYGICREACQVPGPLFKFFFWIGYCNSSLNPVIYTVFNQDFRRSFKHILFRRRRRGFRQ
Description: (§12) The cells were centrifuged at 1000 rpm for 5 min, and the supernatant was discarded. 3 mL of PBS was added, and the mixture was gently pipetted to be mixed well. The cells were centrifuged again at 1000 rpm for 5 min, and the supernatant was discarded. […] After shaking, the assay plates were left to stand at room temperature for 60 min. • (8) Experimental readings: The plate was read on Envision, readings from the 665 nm and 615 nm channels were taken, and the ratio of 665 nm/615 nm readings was calculated.

α2C receptor = target: T4, α2C receptor (Homo sapiens, UniProt P18825); assay: Competitive receptor binding assay, α2C (3H-RX821002, CHO-K1-α2C membranes)
T4 construct: expressed in transfected cells; host or cells: CHO-K1
T4 sequence (P18825 1-462): T3 sequence (P18825 1-462)
Description: as §1, §2, §3, §4, §5, §6, §7, §8, §9, §10, §11

α2B adrenoceptor = target: T5, α2B adrenoceptor (Homo sapiens, UniProt P18089); assay: Agonist screening mode IP-One assay, CHO-α2B/Gα15 cells; assay type: cell-based
T5 construct: host or cells: CHO
T5 sequence (P18089 1-450): T1 sequence (P18089 1-450)
Description: as §12

α1A adrenoceptor = target: T6, α1A adrenoceptor (Homo sapiens, UniProt P35348); assay: Agonist screening mode IP-One assay, 293-α1A cells; assay type: cell-based
T6 construct: host or cells: 293
T6 sequence (P35348 1-466): T2 sequence (P35348 1-466)
Description: as §12

[1] = Ki, CHO-K1-α2B membranes, 3H-RX821002, read-out: Binding α2B
[2] = Ki, CHO-K1-α1A membranes, 3H-Prazosin, read-out: Binding α1A
[3] = Ki, CHO-K1-α2C membranes, 3H-RX821002, read-out: Binding α2C

SMILES | Ki (α2B receptor; [1]) [nM] | Ki (α1A receptor; [2]) [nM] | EC50 (α2C adrenoceptor) [nM] | Ki (α2C receptor; [3]) [nM] | EC50 (α2B adrenoceptor) [nM] | EC50 (α1A adrenoceptor) [nM] | Ki (α2B receptor) [nM] | Ki (α1A receptor) [nM] | Ki (α2C receptor) [nM]
c1cc2c(c(Cc3c[nH]cn3)c1)SCCC2 [Compound 1, 4-[1-(Thiochroman-8-yl)methyl]-1H-imidazole] | 59.1 | 67.9 | 15.3 | 29.3 | 4.09 | 3.16 | – | – | –
CC(c1c[nH]cn1)c1cccc2c1SCCC2 (stereo not drawn) [Compound 2, 4-(1-[Thiochroman-8-yl)ethyl]-1H-imidazole] | 11.7 | 91.2 | 18.4 | 13.8 | 3.03 | 5.32 | – | – | –
CC(c1c[nH]cn1)c1cccc2c1CC2 (stereo not drawn) [Compound 3, 4-(1-(Bicyclo[4.2.0]octa-1(6),2,4-trien-2-yl)ethyl)-1H-imidazole] | – | – | 191 | – | 5.51 | 57 | 62.3 | 1130 | 26.1
CC(c1c[nH]cn1)c1cccc2c1CCCC2 (stereo not drawn) [Compound 4, 4-(1-(5,6,7,8-Tetrahydronaphthalen-1-yl)ethyl)-1H-imidazole] | – | – | 278 | – | 54.4 | 25.1 | 64.6 | 2050 | 46.1
CC(c1c[nH]cn1)c1cccc2c1C=CC2 (stereo not drawn) [Compound 8, 4-[1-(1H-Inden-4-yl)ethyl]-1H-imidazole] | – | – | 9.89 | – | 17.7 | 21.8 | 37.7 | 1130 | 18.9
CC(c1c[nH]cn1)c1cccc2c1OCC2 (stereo not drawn) [Compound 10, 4-[1-(2,3-Dihydrobenzofuran-7-yl)ethyl]-1H-imidazole] | – | – | 3.99 | – | 1.66 | 24.1 | 6.05 | 766 | 6.44
C[C@H](c1c[nH]cn1)c1cc(F)cc2c1C=CC2 [Compound 11-b, 4-[(1S)-1-(6-fluoro-1H-inden-4-yl)ethyl]-1H-imidazole] | – | – | 0.87 | – | 2.55 | 36.8 | 54.8 | 671 | 23.8
CC(c1c[nH]cn1)c1cccc2c1C=CC2(C)C (stereo not drawn) [Compound 17, 4-[1-(1,1-Dimethyl-1H-inden-4-yl)ethyl]-1H-imidazole] | – | – | 134 | – | 6.59 | 104 | 244 | > 10000 | 594
C[C@H](c1c[nH]cn1)c1cccc2c1CCC2 [Compound 31-b, (S)-4-[1-(2,3-dihydro-1H-inden-4-yl)ethyl]-1H-imidazole] | – | – | 1.78 | – | 1.08 | 7.94 | 32.9 | 424 | 10.8
CC1Cc2cccc(C(C)c3c[nH]cn3)c2O1 (stereo not drawn) [Compound 32, 4-[1-(2-Methyl-2,3-dihydrobenzofuran-7-yl)ethyl]-1H-imidazole] | – | – | 8.13 | – | 2.23 | 4.73 | 28.1 | 137 | 26.1
C[C@H](c1c[nH]cn1)c1cc(F)cc2c1C(=O)CC2 [Compound 38-b, (S)-7-(1-(1H-imidazol-4-yl)ethyl)-5-fluoro-2,3-dihydro-1H-inden-1-one] | 49.1 | 3160 | 2.21 | 36.4 | 3.84 | 9.75 | – | – | –
Cc1cccc([C@H](C)c2cnc[nH]2)c1C [Dexmedetomidine hydrochloride, reference compound] | 3.66 | 593 | 2.05 | 7.34 | 0.96 | 9.55 | – | – | –
